Measured values published in US5912414A, “Nucleic acid fragments, chimeric genes and methods for increasing the methionine content of the seeds of plants” (priority 1996, dated 1999).

How the values were obtained:
[1] = target: T1, AKII-HDHII (HDH activity) (Escherichia coli, UniProt P00562); assay: Inhibition of HDH activity of clone 5 extract (metL, AKII-HDHII) by pathway end-products; type: biochemical, E. coli; settings: 30 mM end-product; extract from clone 5
T1 construct: made in house; host or cells: E. coli BL21(DE3), pBT430-derived expression vector; sonicated cell extract of clone 5 (pBT718)
Procedure: (§1) Cultures were grown in TB medium containing ampicillin (100 mg/L) at 37° C. overnight. The cells were collected by centrifugation and resuspended in 1/25th the original culture volume in 50 mM NaCl; 50 mM Tris-Cl, pH 7.5; 1 mM EDTA, and frozen at -20° C., thawed at 37° C. and sonicated, in an ice-water bath, to lyse the cells. The lysate was centrifuged at 4° C. for 5 min at 12,000 rpm. The supernatant was removed and the pellet was resuspended in the above buffer.
The supernatant fractions were assayed for HDH enzyme activities to identify clones expressing functional proteins. HDH activity was assayed as shown below: […]
Make Mixture of above reagents with amounts multiplied by number of assays. Use 0.9 mls of mix for 1 ml assay; 180 μl of mix for 0.2 ml assay in microtiter dish
to 1/2 the assay mix; remaining 1/2 lacks ASA to serve as blank
Add enzyme extract last to start reaction. Incubate at ~30° C.; monitor NADPH oxidation at […]. 1 unit oxidizes 1 μmol NADPH/min at 30° C. in the 1 ml reaction.
(§2) Two extracts also had high levels of AK enzyme activity. These two extracts were then tested for inhibition of AK or HDH activity by the pathway end-products, lys, thr and met.

AKII-HDHII (AK activity) = target: T2, AKII-HDHII (AK activity) (Escherichia coli, UniProt P00562); assay: Inhibition of AK activity of clone 5 extract (metL, AKII-HDHII) by pathway end-products; type: biochemical, E. coli; settings: 30 mM end-product; extract from clone 5
T2 construct: made in house; host or cells: E. coli BL21(DE3), pBT430-derived expression vector; sonicated cell extract of clone 5 (pBT718)
Procedure: as §1
(§3) Assay mix (for 12×1.0 mL or 48×0.25 mL assays):
(§4) Each 1.5 ml eppendorf assay tube contains: […]
(§5) Spin for 2 min in eppendorf centrifuge tube.
as §2

[2] = test system: E. coli strain Gif106M1 transformed with pBT436; assay: Growth inhibition of Gif106M1 transformed with pBT436 on supplemented M9 media; type: cell-based; settings: M9 media with arginine, isoleucine, ampicillin; reversed by threonine plus methionine
Excerpt: To establish that the cloned lysC gene was functional, pBT436 was transformed into E. coli strain Gif106M1 (E. coli Genetic Stock Center strain CGSC-5074) which has mutations in each of the three E. coli AK genes [Theze et al. (1974) J. Bacteriol. 117:133-143]. This strain lacks all AK activity and therefore requires diaminopimelate (a precursor to lysine which is also essential for cell wall biosynthesis), threonine and methionine.
Addition of lysine (or diaminopimelate which is readily converted to lysine in vivo) at a concentration of approximately 0.2 mM to the growth medium inhibits the growth of Gif106M1 transformed with pBT436.M9 media [see Sambrook et al. (1989) Molecular Cloning: a Laboratory Manual, Cold Spring Harbor Laboratory Press] supplemented with the arginine and isoleucine, required for Gif106M1 growth, and ampicillin, to maintain selection for the pBT436 plasmid, was used. This inhibition is reversed by addition of threonine plus methionine to the growth media. […] This property of pBT436-transformed Gif106M1 was used to select for mutations in lysC that encoded lysine-insensitive AKIII.

wild type AKIII = target: T3, wild type AKIII (Escherichia coli, UniProt P08660); assay: Inhibition of wild type AKIII aspartokinase activity by lysine; type: biochemical, E. coli
T3 construct: made in house; host or cells: E. coli Gif106M1 transformed with pBT436 (the plasmid of the cloned wild type lysC gene)
Procedure: Single colonies of Gif106M1 transformed with pBT436 were picked and resuspended in 200 μL of a mixture of 100 μL 1% lysine plus 100 μL of M9 media. The entire cell suspension containing 10^7 -10^8 cells was spread on a petri dish containing M9 media supplemented with the arginine, isoleucine, and ampicillin. Sixteen petri dishes were thus prepared. From 1 to 20 colonies appeared on 11 of the 16 petri dishes. One or two (if available) colonies were picked and retested for lysine resistance and from this nine lysine-resistant clones were obtained. Plasmid DNA was prepared from eight of these and re-transformed into Gif106M1 to determine whether the lysine resistance determinant was plasmid-borne. Six of the eight plasmid DNAs yielded lysine-resistant colonies. Three of these six carried lysC genes encoding AKIII that was uninhibited by 15 mM lysine, whereas wild type AKIII is 50% inhibited by 0.3-0.4 mM lysine and >90% inhibited by 1 mM lysine (see Example 2 for details).
as §3, §4, §5

[3] = test system: lysine-insensitive AKIII (mutant lysC genes M2, M3, M4); assay: Inhibition by lysine of AKIII encoded by mutant lysC genes (lysine-resistant clones); type: biochemical, E. coli; settings: 15 mM lysine; three of six lysine-resistant plasmids

T2 sequence (P00562 other isoform, or with tags, fused parts or gaps): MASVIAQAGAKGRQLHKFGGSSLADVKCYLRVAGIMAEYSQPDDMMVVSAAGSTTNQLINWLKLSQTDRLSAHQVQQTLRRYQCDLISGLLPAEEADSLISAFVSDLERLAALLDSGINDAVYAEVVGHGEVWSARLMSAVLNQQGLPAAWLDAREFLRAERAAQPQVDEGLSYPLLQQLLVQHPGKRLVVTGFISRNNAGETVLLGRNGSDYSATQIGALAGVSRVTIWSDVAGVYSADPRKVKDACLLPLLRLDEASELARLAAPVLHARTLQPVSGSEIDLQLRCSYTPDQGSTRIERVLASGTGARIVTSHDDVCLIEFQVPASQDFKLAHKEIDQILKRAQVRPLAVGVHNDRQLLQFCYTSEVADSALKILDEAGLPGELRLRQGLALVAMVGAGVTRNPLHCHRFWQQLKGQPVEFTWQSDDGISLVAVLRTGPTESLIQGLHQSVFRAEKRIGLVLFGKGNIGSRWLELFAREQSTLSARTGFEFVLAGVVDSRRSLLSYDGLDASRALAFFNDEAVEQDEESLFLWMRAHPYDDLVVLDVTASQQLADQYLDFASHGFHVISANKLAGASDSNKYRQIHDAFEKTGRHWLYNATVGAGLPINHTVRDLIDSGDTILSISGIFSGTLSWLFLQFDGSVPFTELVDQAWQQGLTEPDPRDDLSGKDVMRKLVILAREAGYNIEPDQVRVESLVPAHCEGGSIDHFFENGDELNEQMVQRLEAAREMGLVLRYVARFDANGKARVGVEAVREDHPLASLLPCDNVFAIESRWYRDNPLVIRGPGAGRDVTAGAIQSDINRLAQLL
T1 sequence (P00562 other isoform, or with tags, fused parts or gaps): as above
T3 sequence (P08660 2-449): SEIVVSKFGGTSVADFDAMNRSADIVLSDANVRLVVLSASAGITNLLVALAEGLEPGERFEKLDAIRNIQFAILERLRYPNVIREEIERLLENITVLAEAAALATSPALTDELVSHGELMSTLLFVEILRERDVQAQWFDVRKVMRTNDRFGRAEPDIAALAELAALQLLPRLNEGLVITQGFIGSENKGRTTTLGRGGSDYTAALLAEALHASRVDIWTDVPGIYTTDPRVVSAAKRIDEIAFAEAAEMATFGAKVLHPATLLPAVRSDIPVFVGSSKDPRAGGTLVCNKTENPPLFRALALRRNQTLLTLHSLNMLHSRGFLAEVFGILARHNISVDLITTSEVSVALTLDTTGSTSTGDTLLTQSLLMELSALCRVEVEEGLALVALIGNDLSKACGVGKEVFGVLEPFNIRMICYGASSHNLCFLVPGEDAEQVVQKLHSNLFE

CSCC[C@H](N)C(=O)O [met, methionine]
inhibition of HDH activity [1]: Neither the AK nor the HDH activity of the extract from clone 5 was inhibited | inhibition of AK activity (AKII-HDHII (AK activity)): Neither the AK nor the HDH activity of the extract from clone 5 was inhibited

NC(CCCC(N)C(=O)O)C(=O)O (centres unmarked) [diaminopimelate]
concentration in the growth medium that inhibits growth [2]: approximately 0.2 mM

NCCCC[C@H](N)C(=O)O [lysine]
inhibition of HDH activity [1]: Neither the AK nor the HDH activity of the extract from clone 5 was inhibited | inhibition at 1000 µM (wild type AKIII; read-out: inhibition of wild type AKIII): > 90% | IC50 (wild type AKIII; wild type AKIII from cloned lysC (pBT436), read-out: lysine concentration giving 50% inhibition of wild type AKIII): 300 to 400 µM | inhibition of AKIII encoded by mutant lysC genes [3]: uninhibited | concentration in the growth medium that inhibits growth [2]: approximately 0.2 mM | inhibition of AK activity (AKII-HDHII (AK activity)): Neither the AK nor the HDH activity of the extract from clone 5 was inhibited

C[C@@H](O)[C@H](N)C(=O)O [thr, threonine]
inhibition of HDH activity [1]: Neither the AK nor the HDH activity of the extract from clone 5 was inhibited | inhibition of AK activity (AKII-HDHII (AK activity)): Neither the AK nor the HDH activity of the extract from clone 5 was inhibited
